Source: paper PMC6738653, “The (p)ppGpp-binding GTPase Era promotes rRNA processing and cold adaptation in Staphylococcus aureus” (PLoS Genetics, 2019)

What was measured:
[1] = molecular target: T1, Era (Staphylococcus aureus, UniProt Q2FY06); assay: DRaCALA with […]-ppGpp; format: binding
T1 sequence (Q2FY06 1-299): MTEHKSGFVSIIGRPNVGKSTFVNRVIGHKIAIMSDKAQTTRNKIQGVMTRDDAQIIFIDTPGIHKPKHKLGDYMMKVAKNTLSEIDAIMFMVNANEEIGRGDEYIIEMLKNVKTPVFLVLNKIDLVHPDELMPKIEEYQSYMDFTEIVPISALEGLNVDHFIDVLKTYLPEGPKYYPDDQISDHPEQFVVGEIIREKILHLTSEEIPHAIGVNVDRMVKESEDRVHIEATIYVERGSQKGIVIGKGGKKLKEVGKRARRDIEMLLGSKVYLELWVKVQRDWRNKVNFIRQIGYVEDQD

[2] = molecular target: Era fused to the SB (small bit of luciferase) (S. aureus); assay: split reporter (BiFC, NanoBiT); split luciferase (SB and LB fusions from pAP118) in S. aureus LAC*; 100 ng/ml Atet for 90 min, normalised to OD600 0.1, Nano-Glo Luciferase Assay; positive only if increased over both negative controls

fold increase in luciferase activity upon co-expression [2] [fold]	Molecule	Kd [1] [µM]
	Nc1nc2c(ncn2[C@@H]2O[C@H](COP(=O)(O)OP(=O)(O)O)[C@@H](OP(=O)(O)OP(=O)(O)O)[C@H]2O)c(=O)[nH]1 [ppGpp]	3.1 ± 0.4
4	full-length CshA fused to LB (large bit of luciferase) (natural protein)	
